Assay results taken from ChEMBL document CHEMBL1123631, “Synthesis and gastrointestinal pharmacology of the 4-fluoro analogue of enisoprost” (1987).

Assays:
Assay type in all cases: functional
Canis familiaris [1] = experiment: Gastric antisecretory activity was determined in food stimulated Pavlov dogs by intrapouch administration ig; Value ranges from 6.2-15.3; conditions: Canis lupus familiaris
Rattus norvegicus = organism: Rattus norvegicus; experiment: Mucosal protective activity in rats was measured as minimum effective dose (MED); ig; conditions: po, read-out: MED
Canis familiaris [2] = experiment: Gastric antisecretory activity was determined in food stimulated Pavlov dogs by intrapouch administration ig; Value ranges from 0.017-0.032; conditions: Canis lupus familiaris

Row | Structure (SMILES) | ED50 (Canis familiaris [1]) [µg/kg] | minimal effective dose (Rattus norvegicus) [µg/kg] | ED50 (Canis familiaris [2]) [µg/kg]
1 | CCCCC(C)(O)C/C=C/[C@H]1[C@H](O)CC(=O)[C@@H]1CC/C=C(/F)CCC(=O)OC (some centres undefined) | 9.7 | 50 | –
2 | CCCCC(C)(O)C/C=C/[C@H]1[C@H](O)CC(=O)[C@@H]1CC/C=C\CCC(=O)OC (some centres undefined) [ENISOPROST] | – | 1 | 0.023
